Data on 28 compounds can be found in PubChem BioAssay (NCI).

Holding throughout (experiment): growth of human tumour cells (NCI), 48 h
In assay [1] the test system is BT-549 breast.
Assay [2] deals with HT29 colon.
Assay [3] has as its system IGROV1 ovarian.
Assay [4] concerns LOX IMVI melanoma.
Assay [5] deals with MDA-MB-435.
For assay [6], the system named is NCI/ADR-RES ovarian.
The subject of assay [7] is OVCAR-4 ovarian.
For assay [8], the system named is RPMI-8226 leukemia.
The test system of assay [9] is SF-539 CNS.
Assay [10] relates to UO-31 renal.

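Dose response: 5 concentrations. Exposure: 48 h. Format: 96-well plates. Endpoint: linear interpolation; highest concentration if not reached. TGI: concentration producing complete growth inhibition.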

`Cc1c2cccc-2ccc2c3ccccc3n(C(=O)c3ccc(Cl)cc3)c12`: the TGI in [1], in assay [2], in assay [3], in [4], in assay [5] and in [6] was greater than 100 µM in each case. The TGI in [7], in assay [8], in assay [9] and in assay [10] was greater than 100 µM throughout.

Turning to `COC(=O)Nc1nc2ccc(NC(=O)c3ccc(I)cc3)cc2[nH]1`, the TGI in assay [1], in [2], in [3], in [4], in [5] and in [6] was greater than 100 µM each time. Moreover, the TGI in assay [7], in assay [8], in assay [9] and in assay [10] was greater than 100 µM in each case.

Turning to `NC(N)=NC1C(O)C(O)C(O)C(N=C(N)N)C1O` (stereo not given), the TGI in [1], in assay [2], in assay [3], in assay [4], in assay [5] and in assay [6] was greater than 100 µM each time. Also, the TGI in [7], in [8], in assay [9] and in assay [10] was greater than 100 µM each time.

`O=C(c1ccc(Cl)cc1)N1CCN=C1c1cc2ccccc2c2ccccc12`: the TGI in assay [1] amounted to 33.6 µM; in assay [2], 30 µM; in assay [3], 29.2 µM; in assay [4], 36.1 µM; in assay [5] it was 31.9 µM; in assay [6] it was 33.3 µM. The TGI was 27.7 µM in [7], 55.8 µM in assay [8], 29.1 µM in assay [9] and 31.5 µM in assay [10].

In the case of `COc1ccccc1NC(=O)CC(=O)NN`, the TGI in assay [1], in [2], in assay [3], in assay [4], in assay [5] and in assay [6] was greater than 100 µM throughout. Further, the TGI in assay [7], in assay [8], in [9] and in [10] was greater than 100 µM throughout.

Take `Cc1nc(Nc2ccccc2Cl)sc1C(=O)CC(=O)C(N)=O`: the TGI in assay [1], in [2], in assay [3], in assay [4], in [5] and in assay [6] was greater than 100 µM in each case. The TGI in assay [7], in assay [8], in [9] and in assay [10] was greater than 100 µM in each case.

For the compound `O=C(Nc1nn[nH]n1)c1nc(-c2ccccc2)cc(=O)[nH]1`, the TGI in assay [1], in assay [2], in [3], in assay [4], in assay [5] and in assay [6] was greater than 100 µM each time. In addition, the TGI in assay [7], in assay [8], in assay [9] and in assay [10] was greater than 100 µM in each case.

As to `CCOC(=O)CCC(C(=O)OCC)n1nnc2cc(Nc3c(C)[n+]([O-])c4cc(F)c(OCC)cc4[n+]3[O-])ccc21` (stereo not given), the TGI in assay [1], in assay [2], in [3], in assay [4], in assay [5] and in [6] was greater than 100 µM each time. Besides, the TGI in assay [7], in [8], in assay [9] and in assay [10] was greater than 100 µM in each case.

On to `Clc1ccc(C2=CCN3CC=C(c4ccc(Cl)cc4)C23)cc1`, for which the TGI in assay [1] amounted to 24 µM; in [2], 17.8 µM; in [3] it was 21.9 µM; in assay [4], 20.6 µM; in assay [5], 22.9 µM; in assay [6], 26.9 µM. The TGI in assay [7] was determined as 26.1 µM; in assay [8], 18.5 µM; in [9], 31.1 µM; in assay [10] it was 20 µM.

As for `CC(CNC(N)=O)NC(N)=O` (stereo not given), the TGI in [1], in assay [2], in assay [3], in assay [4], in assay [5] and in [6] was greater than 100 µM throughout. Besides, the TGI in [7], in assay [8], in [9] and in assay [10] was greater than 100 µM throughout.

Consider `CC1(C)CC[C@]2(C(=O)O)CC[C@]3(C)[C@H](C(=O)C=C4[C@@]5(C)C=C(C#N)C(=O)C(C)(C)[C@@H]5CC[C@]43C)[C@@H]2C1`, for which the TGI in assay [1] amounted to 4.11 µM; in assay [2], 6.43 µM; in assay [3], 7.15 µM; in [4] it was 1.1 µM; in assay [5], 3 µM; in [6], 4.68 µM. Further, the TGI was found to be 23.2 µM in assay [7], 1.19 µM in assay [8], 4.05 µM in assay [9] and 6.29 µM in [10].

Turning to `CCOc1cc2c(cc1O)C(O)C[C@@H]1[C@@H]2CC[C@]2(C)[C@@H](O)CC[C@@H]12` (stereo not given in full), the TGI was greater than 100 µM in assay [1]; 25.1 µM in [2]; greater than 100 µM in assay [3]; greater than 100 µM in assay [4]; greater than 100 µM in assay [5]; 4.04 µM in assay [6]. The TGI in [7] is greater than 100 µM; in assay [8], greater than 34 µM; in assay [9], 3.6 µM; in assay [10] it was greater than 100 µM.

As to `CC(C)CCOC(=O)NC(Nc1ccc(F)cc1)(C(F)(F)F)C(F)(F)F`, the TGI in assay [1], in assay [2], in [3], in assay [4], in [5] and in assay [6] was greater than 100 µM in each case. In addition, the TGI was greater than 100 µM in [8], 46.1 µM in assay [9] and 36.5 µM in assay [10].

`CCN(CC)C(=O)Cn1c2c(c3ccccc31)CCCC2`: the TGI in assay [1], in [2], in assay [3], in assay [4], in assay [5] and in [6] was greater than 100 µM in each case. Also, the TGI in [8], in [9] and in [10] was greater than 100 µM in each case.

With `COc1cc2nc(-c3cccs3)nc(Nc3cccc(Cl)c3)c2cc1OC`, the TGI in assay [1], in [2], in assay [3], in assay [4], in assay [5] and in [6] was greater than 100 µM throughout. The TGI in assay [7], in assay [8], in [9] and in [10] was greater than 100 µM each time.

Take `Cc1nc(-c2cc3ccccc3oc2=O)cs1`: the TGI was 31 µM in assay [1]; greater than 100 µM in assay [2]; greater than 100 µM in [3]; greater than 100 µM in assay [4]; greater than 100 µM in assay [5]; greater than 100 µM in assay [6]. For the same compound, the TGI in assay [7], in assay [8], in assay [9] and in assay [10] was greater than 100 µM throughout.

Regarding `Cc1c([C@H](C)[C@@H]2NC[C@@H](C)C[C@H]2O)ccc2c1C[C@H]1[C@H]2CC=C2C[C@@H](O)CC[C@@]21C`, the TGI in assay [1] was 54.5 µM; in assay [2] it was 42 µM; in assay [3] it was 43.9 µM; in [4], 27 µM; in assay [5], 26.4 µM; in [6], greater than 100 µM. For the same compound, the TGI was found to be 40 µM in assay [7], 17.9 µM in assay [8] and 37.5 µM in [10].

Consider `O=C(OCc1ccccc1)N1CCNCCNCCN(C(=O)OCc2ccccc2)CCNCC1`, for which the TGI in assay [1] is greater than 100 µM; in assay [2], 32.9 µM; in assay [3], 91.3 µM; in assay [4] it was 30.8 µM; in assay [5], 29.6 µM; in [6] it was greater than 100 µM. The TGI in assay [7] was greater than 100 µM; in assay [8], 50.8 µM; in [9] it was 32.8 µM; in assay [10] it was 27.8 µM.

Consider `COc1ccc2cc(C(C)C(=O)N3C(=O)OCC3(C)C)ccc2c1` (stereo not given), for which the TGI in assay [1], in assay [2], in [3], in [4], in assay [5] and in assay [6] was greater than 100 µM each time. Also, the TGI in assay [7], in assay [8] and in [10] was greater than 100 µM throughout.

In the case of `CC(C)(C)OC(=O)c1ccc(NCC2=C(Br)C(=O)C=CC2=O)cc1`, the TGI was 26.5 µM in [1]; 33.9 µM in assay [2]; greater than 66.9 µM in assay [3]; 31.4 µM in [4]; 41.3 µM in [5]; 62.9 µM in assay [6]. Moreover, the TGI in assay [7] was 33 µM; in assay [8], greater than 100 µM; in assay [9] it was 52.8 µM; in [10], 28.6 µM.

In the case of `Cc1cc(S(=O)(=O)/N=C(/NN)Nc2ccc(Cl)cc2)c(S)cc1Cl`, the TGI in assay [1] was 34.6 µM; in assay [2], 49.2 µM; in [3], 39.7 µM; in assay [4] it was 30.5 µM; in assay [5] it was 25.6 µM; in assay [6], 23.4 µM. In addition, the TGI in assay [7] is 62.8 µM; in assay [8], greater than 100 µM; in assay [9], 42.6 µM; in assay [10] it was 18 µM.

Regarding `COC1=CC(=O)N(C)C(O)C1(C#N)OC1OC(CO)C(O)C(O)C1O` (stereo not given), the TGI in assay [1] was greater than 100 µM; in assay [2], greater than 10 µM; in [3] it was greater than 100 µM; in assay [4], greater than 100 µM; in assay [5], greater than 100 µM; in assay [6], greater than 100 µM. Further, the TGI in assay [7], in [8], in [9] and in assay [10] was greater than 100 µM in each case.

For the compound `OC(NN=C1CCCC1)(C(F)(F)Cl)C(F)(F)Cl`, the TGI in assay [1], in [2], in [3], in assay [4], in assay [5] and in assay [6] was greater than 10 µM each time. In addition, the TGI in [7], in assay [8] and in assay [9] was greater than 10 µM throughout.

In the case of `C#CCOC(=O)c1ccc(OC(C)=O)cc1`, the TGI in assay [1], in assay [3], in assay [4], in [5], in assay [6] and in assay [7] was greater than 100 µM throughout. Also, the TGI in assay [8], in assay [9] and in assay [10] was greater than 100 µM throughout.

Regarding `CCOC1=C(c2ccccc2)N2CCCCC2O1` (stereo not given), the TGI in assay [1] is 26.3 µM; in assay [2], 16.9 µM; in assay [3] it was greater than 51.4 µM; in assay [4], 13.8 µM; in assay [5], 16.8 µM; in assay [6] it was greater than 96.4 µM. For the same compound, the TGI in [8] is greater than 24 µM; in assay [9] it was 34.8 µM; in assay [10], greater than 79.8 µM.

`C[C@H](C1CC2(C)OC2(C)C(=O)O1)[C@H]1CC[C@H]2[C@@H]3[C@@H]4O[C@@H]4[C@@]4(O)CC=CC(=O)[C@]4(C)[C@H]3CC[C@]12C` (stereo not given in full): the TGI in [1], in assay [2], in assay [3], in [4], in assay [5] and in [6] was greater than 50 µM each time. The TGI in [7], in [8] and in [10] was greater than 50 µM throughout.

`NC(=S)NC/C=C/Cl`: the TGI in assay [1], in assay [2], in assay [3], in [4], in [5] and in assay [6] was greater than 100 µM in each case. In addition, the TGI in [7], in [8] and in assay [10] was greater than 100 µM in each case.

Regarding `Cc1cc(-c2nc3cccc(O)c3s2)ccc1N`, the TGI in assay [1] is 54.7 µM; in [2], greater than 100 µM; in assay [3] it was greater than 100 µM; in [4], greater than 100 µM; in assay [5] it was 41.9 µM; in [6] it was 55.9 µM. Further, the TGI in assay [8] was greater than 100 µM; in [9], greater than 100 µM; in assay [10], 25.4 µM.
